Molecules are shown by their SMILES.

This assay has as its system MCF7. Nature of the assay: Growth inhibition of human MCF7 cells at 10 uM incubated for 72 hrs by SRB assay. As to conditions: MCF7, 72 h, read-out: GI. The format is functional. Background: In SRB staining, fixed cells bind dye roughly in proportion to their protein.

For the compound `CCCC(=O)c1c(O)cc(O)c2c1C(=O)c1cc(OC)cc(OC)c1C2=O`, the inhibition of growth at 10 µM came out at 9%.

The values above are taken from ChEMBL document CHEMBL4477196, “Rhodocomatulin-Type Anthraquinones from the Australian Marine Invertebrates Clathria hirsuta and Comatula rotalaria” (2016).
